Data set [1] deals with PANK2 silenced human neuroblastoma IMR32 cells (PANK2−/−). Nature of the data set: Coenzyme A assay in PANK2 silenced cells (LC-MS quantification of free CoA). The following applies: compound added twice (24 h + 24 h), relative to 0.1% DMSO controls. It is filed as cell-based. The method in brief:
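PANK2 shRNA-silenced IMR32 neuroblastoma cells were treated with compound (0.1% DMSO) for 24 h, then re-dosed with fresh compound for a further 24 h at 37 °C. TFA extracts of 1×10^6 cells were assayed for free CoA by LC-MS/MS (MRM 768.1→261.6/136.1). Results are given as fold change versus DMSO controls.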

The nature of data set [2]: Stability in human plasma. It is filed as in vitro ADME. As to conditions: human, plasma, 37° C. The method, then:
Compounds and positive control samples were dissolved in 100% DMSO at 3 mM. To investigate the stability of the test compounds in plasma, samples were made by diluting test compounds into plasma from the stock solutions to obtain a test compound concentration of 3 μM (0.1% DMSO). Before addition of a test compound, 990 μl of plasma were preincubated at 37° C. for 5 min in eppendorf. After addition of a test compound, 70 μl for each time point were transferred to a 96-deepwell plate, previously warmed at 37° C. in a DUBNOFF water bath. Each compound was tested at five time points, in duplicate (10, 20, 30, 40 and 60 min). At each time point, an aliquot of 50 μl was taken and transferred to a new 96-deepwell plate, and the reaction was stopped with 200 μl of 100% acetonitrile containing 0.1% formic acid and the appropriate internal standard. Then samples were centrifuged at 1100×g for 30 min at +4° C. and supernatants were transferred to a new 96-deepwell plate. Samples were evaporated under N2 and reconstituted in H2O/ACN 0.1% Formic Acid (98:2). Analysis was performed without a calibration curve (Acquity UPLC-Waters; SciexAPI4000). Time 0 was obtained by adding acetonitrile before addition of the test compound.

Setting [3] is: Diastereoisomer A (upfield shift in 31P NMR), read-out: t1/2, Human Plasma, Diastereoisomer A (converted).
[4] abbreviates: Diastereoisomer B, read-out: t1/2, Human Plasma, Diastereoisomer B (converted).

Like-named read-outs stand apart in the source and are kept apart here. Some results are limits rather than exact numbers.

With `C[C@H](NP1(=O)OCC(C)(C)[C@H](C(=O)NCCC(=O)OC2Cc3ccccc3C2)O1)C(=O)OCCc1ccccc1` (stereo partly drawn) [1-54, 2,3-dihydro-1H-inden-2-yl 3-((4R)-5,5-dimethyl-2-oxido-2-(((S)-1-oxo-1-phenethoxypropan-2-yl)amino)-1,3,2-dioxaphosphinane-4-carboxamido)propanoate], the “PANK2−/− CoA (Fold Increase): fold increase in Coenzyme A (CoA) levels relative to controls” value in data set [1] is 1.13 Fold Increase. The half-life at 3 µM in data set [2] (setting [3]) and in data set [2] (setting [4]) was less than 9.6 min in each case.

Turning to `C[C@H](NP1(=O)OCC(C)(C)[C@H](C(=O)NCCC(=O)O[C@@H]2CCOC2)O1)C(=O)OCCc1ccccc1` (stereo partly drawn) [1-55, phenethyl ((4R)-5,5-dimethyl-2-oxido-4-((3-oxo-3-(((R)-tetrahydrofuran-3-yl)oxy)propyl)carbamoyl)-1,3,2-dioxaphosphinan-2-yl)-L-alaninate], the “PANK2−/− CoA (Fold Increase): fold increase in Coenzyme A (CoA) levels relative to controls” value in data set [1] is 2.09 Fold Increase. The half-life at 3 µM in data set [2] (setting [3]) and in data set [2] (setting [4]) was more than 60 min each time.

Take `CN1CCCC(OC(=O)CCNC(=O)[C@@H]2OP(=O)(OCOC(=O)C(C)(C)C)OCC2(C)C)C1` (stereo partly drawn) [Compound No. 99, (((4R)-5,5-dimethyl-4-((3-((1-methylpiperidin-3-yl)oxy)-3-oxopropyl)carbamoyl)-2-oxido-1,3,2-dioxaphosphinan-2-yl)oxy)methyl pivalate]: in data set [1], the “PANK2−/− CoA (Fold Increase): fold increase in Coenzyme A (CoA) levels relative to controls” value is given as 10.44 Fold Increase. Moreover, the half-life at 3 µM in data set [2] (setting [3]) was 39.6 min.

Take `COC(=O)CCNC(=O)[C@@H]1OP(=O)(N[C@@H](C)C(=O)OCCCc2ccccc2)OCC1(C)C` (stereo in doubt) [compound 46, methyl 3-((2R,4R)-5,5-dimethyl-2-oxido-2-(((S)-1-oxo-1-(3-phenylpropoxy)propan-2-yl)amino)-1,3,2-dioxaphosphinane-4-carboxamido)propanoate]: the “PANK2−/− CoA (Fold Increase): fold increase in Coenzyme A (CoA) levels relative to controls” value in data set [1] worked out at 2.74 Fold Increase. In addition, the half-life at 3 µM in data set [2] (setting [3]) is 57 min.

Consider `CC(C)[C@H](N[P@]1(=O)OCC(C)(C)[C@H](C(=O)NCCC(=O)OC(C)(C)C)O1)C(=O)OCCc1ccccc1` [compound 49, phenethyl ((2S,4R)-4-((3-(tert-butoxy)-3-oxopropyl)carbamoyl)-5,5-dimethyl-2-oxido-1,3,2-dioxaphosphinan-2-yl)-L-valinate], for which, in data set [1], the “PANK2−/− CoA (Fold Increase): fold increase in Coenzyme A (CoA) levels relative to controls” value is 1.09 Fold Increase. Also, the half-life at 3 µM in data set [2] (setting [3]) is more than 60 min.

Regarding `C[C@H](NP1(=O)OCC(C)(C)[C@H](C(=O)NCCC(=O)OCC2CC2)O1)C(=O)OCCc1ccccc1` (stereo partly drawn) [compound 37, cyclopropylmethyl 3-((4R)-5,5-dimethyl-2-oxido-2-(((S)-1-oxo-1-phenethoxypropan-2-yl)amino)-1,3,2-dioxaphosphinane-4-carboxamido)propanoate], the “PANK2−/− CoA (Fold Increase): fold increase in Coenzyme A (CoA) levels relative to controls” value in data set [1] stood at 1.9 Fold Increase. The half-life at 3 µM in data set [2] (setting [3]) and in data set [2] (setting [4]) was more than 60 min throughout.

Take `COC(=O)CCNC(=O)[C@@H]1OP(=O)(OCOC(=O)C(C)C)OCC1(C)C` (stereo partly drawn) [Compound No. 103, (((4R)-4-((3-methoxy-3-oxopropyl)carbamoyl)-5,5-dimethyl-2-oxido-1,3,2-dioxaphosphinan-2-yl)oxy)methyl isobutyrate]: the “PANK2−/− CoA (Fold Increase): fold increase in Coenzyme A (CoA) levels relative to controls” value in data set [1] is 105.8 Fold Increase. Also, the half-life at 3 µM in data set [2] (setting [3]) and in data set [2] (setting [4]) was less than 9.6 min each time.

In the case of `C[C@H](NP1(=O)OCC(C)(C)[C@H](C(=O)NCCC(=O)OCCN2CCCC2)O1)C(=O)OCCc1ccccc1` (stereo partly drawn) [compound 44, phenethyl ((4R)-5,5-dimethyl-2-oxido-4-((3-oxo-3-(2-(pyrrolidin-1-yl)ethoxy)propyl)carbamoyl)-1,3,2-dioxaphosphinan-2-yl)-L-alaninate], the “PANK2−/− CoA (Fold Increase): fold increase in Coenzyme A (CoA) levels relative to controls” value in data set [1] turned out to be 1.62 Fold Increase. In data set [2] (setting [3]), the half-life at 3 µM is more than 60 min.

These data come from patent US10364263B2, “Cyclic phosphates and cyclic phosphoramidates for the treatment of neurologic disorders” (Retrophin, Inc., priority 2015, dated 2019).
